# Laboratory results published in article PMC6520840, “Antimicrobial and Antibiofilm Effects of Peptides from Venom of Social Wasp and Scorpion on Multidrug-Resistant Acinetobacter baumannii” (Toxins, 2019).
# No end group written: not given here.
# Legend:
# [1] = system: A. baumannii isolate AB 72; conditions: cited from earlier work
# Procedure: (§1) In this work, three A. baumannii isolates previously described by Castilho et al. that were isolated from patients with hospital-acquired infections were used. Isolates AB 02 and AB 72 were resistant to ampicillin, amikacin, and ciprofloxacin. AB 53 isolate only presented resistance to ampicillin. […] Thus, AB 02 and AB 72 were considered as MDR strains. The ability to form biofilms by A. baumannii isolates AB 02, AB 53 and AB 72 was determined by crystal violet staining ...
# [2] = system: A. baumannii isolate AB 02; conditions: cited from earlier work
# Procedure: as §1
# [3] = system: A. baumannii isolate AB 53; conditions: cited from earlier work
# Procedure: as §1
# [4] = system: A. baumannii isolate AB 53 biofilm; assay: Inhibition of biofilm formation on polystyrene plates (MBEC), crystal violet; format: cell-based, Acinetobacter baumannii; conditions: for Minimal inhibitory concentration against the formation of A. baumannii biofilm (MBEC): Isolate AB 53, polystyrene plate, LB 1/4 + 0.2% glucose, 29 °C, 24 h, crystal violet, OD 595 nm, peptides 25 to 1.56 μM
# Procedure: (§2) In order to determine if individual peptides could avoid biofilm formation, the minimal biofilm eradication concentration (MBEC) determination assay was performed using 96-well polyethylene plates according to Feng et al. methodology with minor modifications. Initially, A. baumannii strains (AB 02, AB 53, and AB 72) were grown for 6 h in LB broth until reaching an optimum growth of 1.0 in the optical density of 600 nm and then the culture concentration was adjusted to 1.5 × 10^8 CFU/mL and 30 μL of the culture was added to the wells containing 170 μL de LB ¼ + 0.2% glucose containing serially diluted peptides ranging from 25 to 1.56 μM. Cells were incubated at 29 °C for 24 h to let biofilms be formed. The supernatant was removed and the wells were washed with 200 μL of PBS twice to remove the non-adherent and weakly adherent cells, maintaining only the mature biofilm formed on the plate. Biofilm quantification was measured by staining attached cells with 0.2% (w/v) violet crystal staining solubilized with ethanol/acetone (80/20 v/v) and quantified at 595 nm. The biofilms formed in cultures with different peptide concentrations were compared with the biofilms formed in cultures of A. baumannii strains without peptides. Analyses were performed in triplicate and three independent experiments were performed for each of these assays.
# [5] = system: A. baumannii isolate AB 72 biofilm; assay: as above; format: cell-based, Acinetobacter baumannii; conditions: for Minimal inhibitory concentration against the formation of A. baumannii biofilm (MBEC): Isolate AB 72, polystyrene plate, LB 1/4 + 0.2% glucose, 29 °C, 24 h, crystal violet, OD 595 nm, peptides 25 to 1.56 μM
# Procedure: as §2
# [6] = system: A. baumannii isolate AB 02 biofilm; assay: as above; format: cell-based, Acinetobacter baumannii; conditions: for Minimal inhibitory concentration against the formation of A. baumannii biofilm (MBEC): Isolate AB 02, polystyrene plate, LB 1/4 + 0.2% glucose, 29 °C, 24 h, crystal violet, OD 595 nm, peptides 25 to 1.56 μM
# Procedure: as §2, with “[…] [71]” for “In order to determine if individual peptides could avoid biofilm formation, the minimal biofilm eradication concentration (MBEC) determination assay was performed using 96-well polyethylene plates according to Feng et al.”
# [7] = system: A. baumannii isolate AB 72; assay: Minimum inhibitory concentration (MIC), broth microdilution; format: cell-based, Acinetobacter baumannii; conditions: peptides 25 to 1.56 μM, 24 h at 37 °C, OD 405 nm, triplicates
# Procedure: (§3) The minimum inhibitory concentration was determined by broth microdilution according to Wiegand et al.. The AB 02, […] and AB 72 isolates were grown in LB broth medium for 8 h at 37 °C until they reached a growth turbidity corresponding to 0.5 of the McFarland scale. Thirty microliters of each culture were added in the wells of polystyrene plates containing 170 µL of culture medium with different concentrations of the antimicrobial peptides. Agelaia-MPI, Polybia-MPII, Polydim-I, Con10 and NDBP 5.8 antimicrobial peptides were serially diluted from 25 to 1.56 μM. The plate containing different concentrations of individual peptides with the bacterial strains were incubated for 24 h at 37 °C, after which time the plates were read at the optical density of 405 nm. As positive control, bacterial strains without peptides were grown in the same conditions, and as negative control medium alone was used.
# [8] = system: A. baumannii isolate AB 02; assay: as above; format: cell-based, Acinetobacter baumannii; conditions: peptides 25 to 1.56 μM, 24 h at 37 °C, OD 405 nm, triplicates
# Procedure: as §3
# [9] = system: A. baumannii isolate AB 53; assay: as above; format: cell-based, Acinetobacter baumannii; conditions: peptides 25 to 1.56 μM, 24 h at 37 °C, OD 405 nm, triplicates
# S. epidermidis biofilm = format: cell-based, Staphylococcus epidermidis; conditions: peptide at 12.5 μM, crystal violet
# Procedure: (§4) To determine the formation of the biofilm of Staphylococcus spp., the methodology according to Kwasny and Opperman (2010) with modifications was used. Staphylococcus epidermidis and methicillin-resistant Staphylococcus aureus (MRSA) cryopreserved strains at −80 °C were reactivated in solid medium to obtain an isolated colony, which was inoculated in LB medium broth and cultured at 37 °C until they reached a concentration corresponding to 0.5 turbidity of the MacFarland scale. At that concentration, 30 μL of the bacterial culture was added to wells containing 170 μL of tryptic soy broth (HiMedia) broth with 1% glucose. The plate was incubated at 37 °C for 24 h. After this period the bacterial growth was quantified by optical density reading at 600 nm and the formation of the biofilm was determined by the colorimetric method similar to that used for Acinetobacter. The biofilm inhibition test also followed the standard for the previous tests, with modifications in the culture medium used to increase the bacterial biofilm production by Staphylococcus strains.
# [10] = system: methicillin-resistant S. aureus (MRSA) biofilm; format: cell-based, Staphylococcus aureus; conditions: peptide at 12.5 μM, crystal violet
# Procedure: as §4
Molecule,Antibiotic susceptibility category [1],Antibiotic susceptibility category [2],Antibiotic susceptibility category [3],Minimal inhibitory concentration against the formation of A. baumannii biofilm (MBEC) [4] [µM],Minimal inhibitory concentration against the formation of A. baumannii biofilm (MBEC) [5] [µM],Minimal inhibitory concentration against the formation of A. baumannii biofilm (MBEC) [6] [µM],MIC [7] [µM],MIC [8] [µM],MIC [9] [µM],other results
NCC[C@H](O)C(=O)N[C@@H]1C[C@H](N)[C@@H](O[C@H]2O[C@H](CN)[C@@H](O)[C@H](O)[C@H]2O)[C@H](O)[C@H]1O[C@H]1O[C@H](CO)[C@@H](O)[C@H](N)[C@H]1O [amikacin],resistant,resistant,–,–,–,–,–,–,–,–
CC1(C)S[C@@H]2[C@H](NC(=O)[C@H](N)c3ccccc3)C(=O)N2[C@H]1C(=O)O [ampicillin],resistant,resistant,resistance,–,–,–,–,–,–,–
O=C(O)c1cn(C2CC2)c2cc(N3CCNCC3)c(F)cc2c1=O [ciprofloxacin],resistant,resistant,–,–,–,–,–,–,–,–
C[C@@H](O)[C@H]1C(=O)N2C(C(=O)O)=C(S[C@@H]3CN[C@H](C(=O)N(C)C)C3)[C@H](C)[C@H]12 [meropenem],susceptible,–,susceptible,–,–,–,–,–,–,–
CN(C)[C@@H]1C(O)=C(C(N)=O)C(=O)[C@@]2(O)C(O)=C3C(=O)c4c(O)cccc4[C@@](C)(O)[C@H]3C[C@@H]12 [tetracycline],intermediate susceptibility,intermediate susceptibility,intermediate susceptibility,–,–,–,–,–,–,–
AVAGEKLWLLPHLLKMLLTPTP-NH2 [Polydim-I],–,–,–,>25,>25,>25,–,–,–,–
FWSFLVKAASKILPSLIGGGDDNKSSS-NH2 [Con10],–,–,–,12.5,12.5,25,6.25,12.5,6.25,–
GILGKIWEGVKSLI-NH2 [NDBP-5.8],–,–,–,>25,>25,>25,25,25,25,"Minimal inhibitory concentration against the formation of A. baumannii biofilm (MBEC) ([4]; listed as NBDP 5.8): 25 µM; Inhibition of the biofilm ([4]; isolate AB 53, peptide at 25 μM): > 95%; Minimal inhibitory concentration against the formation of A. baumannii biofilm (MBEC) ([5]; listed as NBDP 5.8): 25 µM; Inhibition of the biofilm ([5]; isolate AB 72, peptide at 25 μM): > 95%; Minimal inhibitory concentration against the formation of A. baumannii biofilm (MBEC) ([6]; listed as NBDP 5.8): 25 µM; Inhibition of the biofilm ([6]; isolate AB 02, peptide at 25 μM): > 95%"
INWLKLGKAIIDAL-NH2 [Agelaia-MPI],–,–,–,6.25,12.5,25,–,6.25,3.12,Inhibition of biofilm formation (S. epidermidis biofilm): 85%; Inhibition of biofilm formation [10]: 85%
INWLKLGKMVIDAL-NH2 [Polybia-MPII],–,–,–,12.5,25,25,6.25,12.5,6.25,Inhibition of biofilm formation (S. epidermidis biofilm): 85%; Inhibition of biofilm formation [10]: 85%
